Results published in PubChem BioAssay (NCI).
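The compound was tested at five concentrations on cells cultured in 96-well plates, with a 48-hour exposure period. Abbreviation: GI50, concentration required for 50% inhibition of growth. TGI marks complete inhibition of growth.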

How the values were obtained:
Experiment in all cases: NCI-60 cell line screen, 48 h
TK-10 renal = system: TK-10 renal
HCT-15 colon = system: HCT-15 colon
PC-3 prostate = system: PC-3 prostate
MOLT-4 leukemia = system: MOLT-4 leukemia
HOP-62 NSCLC = system: HOP-62 NSCLC
CAKI-1 renal = system: CAKI-1 renal
MCF7 breast = system: MCF7 breast
SN12C renal = system: SN12C renal
HL-60(TB) leukemia = system: HL-60(TB) leukemia
786-0 renal = system: 786-0 renal
CCRF-CEM leukemia = system: CCRF-CEM leukemia
SW-620 colon = system: SW-620 colon
OVCAR-4 ovarian = system: OVCAR-4 ovarian
U251 CNS = system: U251 CNS
HCT-116 colon = system: HCT-116 colon
SNB-19 CNS = system: SNB-19 CNS
SK-MEL-28 melanoma = system: SK-MEL-28 melanoma
SNB-75 CNS = system: SNB-75 CNS
OVCAR-8 ovarian = system: OVCAR-8 ovarian
HCC-2998 colon = system: HCC-2998 colon
OVCAR-3 ovarian = system: OVCAR-3 ovarian
IGROV1 ovarian = system: IGROV1 ovarian
SK-OV-3 ovarian = system: SK-OV-3 ovarian
UO-31 renal = system: UO-31 renal
RXF 393 renal = system: RXF 393 renal
HS 578T breast = system: HS 578T breast
UACC-62 melanoma = system: UACC-62 melanoma
K-562 leukemia = system: K-562 leukemia
NCI-H23 lung = system: NCI-H23 lung
SF-268 CNS = system: SF-268 CNS
NCI/ADR-RES ovarian = system: NCI/ADR-RES ovarian
A549 NSCLC = system: A549 NSCLC
M14 melanoma = system: M14 melanoma
HT29 colon = system: HT29 colon
DU-145 prostate = system: DU-145 prostate
MDA-MB-435 = system: MDA-MB-435
NCI-H460 lung = system: NCI-H460 lung
SF-295 CNS = system: SF-295 CNS
SK-MEL-2 melanoma = system: SK-MEL-2 melanoma
KM12 colon = system: KM12 colon
NCI-H522 lung = system: NCI-H522 lung
BT-549 breast = system: BT-549 breast
ACHN renal = system: ACHN renal
SF-539 CNS = system: SF-539 CNS
COLO 205 colon = system: COLO 205 colon
SK-MEL-5 melanoma = system: SK-MEL-5 melanoma
MDA-MB-231 breast = system: MDA-MB-231 breast
HOP-92 NSCLC = system: HOP-92 NSCLC
UACC-257 melanoma = system: UACC-257 melanoma
A498 renal = system: A498 renal
EKVX NSCLC = system: EKVX NSCLC
NCI-H226 lung = system: NCI-H226 lung
MALME-3M melanoma = system: MALME-3M melanoma
T-47D breast = system: T-47D breast
OVCAR-5 ovarian = system: OVCAR-5 ovarian
LOX IMVI melanoma = system: LOX IMVI melanoma

O=[N+]([O-])c1cnc(Sc2ccncn2)s1
GI50 (TK-10 renal): 2.14 µM
TGI (TK-10 renal): 4.22 µM
GI50 (HCT-15 colon): 1.75 µM
TGI (HCT-15 colon): 3.44 µM
GI50 (PC-3 prostate): 2.73 µM
TGI (PC-3 prostate): 17 µM
GI50 (MOLT-4 leukemia): 2 µM
TGI (MOLT-4 leukemia): 5.04 µM
GI50 (HOP-62 NSCLC): 21.8 µM
TGI (HOP-62 NSCLC): 40.2 µM
GI50 (CAKI-1 renal): 1.64 µM
TGI (CAKI-1 renal): 3.07 µM
GI50 (MCF7 breast): 1.65 µM
TGI (MCF7 breast): 3.45 µM
GI50 (SN12C renal): 3.24 µM
TGI (SN12C renal): 8.41 µM
GI50 (HL-60(TB) leukemia): 1.69 µM
TGI (HL-60(TB) leukemia): 4.18 µM
GI50 (786-0 renal): 6.72 µM
TGI (786-0 renal): 18.4 µM
GI50 (CCRF-CEM leukemia): 1.51 µM
TGI (CCRF-CEM leukemia): 3.53 µM
GI50 (SW-620 colon): 1.66 µM
TGI (SW-620 colon): 3.29 µM
GI50 (OVCAR-4 ovarian): 1.76 µM
TGI (OVCAR-4 ovarian): 3.27 µM
GI50 (U251 CNS): 3.49 µM
TGI (U251 CNS): 11.5 µM
GI50 (HCT-116 colon): 1.84 µM
TGI (HCT-116 colon): 3.33 µM
GI50 (SNB-19 CNS): 15.9 µM
TGI (SNB-19 CNS): 31.9 µM
GI50 (SK-MEL-28 melanoma): 1.98 µM
TGI (SK-MEL-28 melanoma): 3.69 µM
GI50 (SNB-75 CNS): 3.84 µM
TGI (SNB-75 CNS): 18.8 µM
GI50 (OVCAR-8 ovarian): 3.94 µM
TGI (OVCAR-8 ovarian): 13.1 µM
GI50 (HCC-2998 colon): 5.46 µM
TGI (HCC-2998 colon): 10.7 µM
GI50 (OVCAR-3 ovarian): 1.74 µM
TGI (OVCAR-3 ovarian): 3.16 µM
GI50 (IGROV1 ovarian): 1.71 µM
TGI (IGROV1 ovarian): 3.35 µM
GI50 (SK-OV-3 ovarian): 21.2 µM
TGI (SK-OV-3 ovarian): 45.4 µM
GI50 (UO-31 renal): 1.75 µM
TGI (UO-31 renal): 3.2 µM
GI50 (RXF 393 renal): 0.312 µM
TGI (RXF 393 renal): 1.68 µM
GI50 (HS 578T breast): 2.37 µM
TGI (HS 578T breast): 5.59 µM
GI50 (UACC-62 melanoma): 6.12 µM
TGI (UACC-62 melanoma): 16.9 µM
GI50 (K-562 leukemia): 1.31 µM
TGI (K-562 leukemia): 3.8 µM
GI50 (NCI-H23 lung): 8.99 µM
TGI (NCI-H23 lung): 26.4 µM
GI50 (SF-268 CNS): 2.65 µM
TGI (SF-268 CNS): 7.29 µM
GI50 (NCI/ADR-RES ovarian): 11.3 µM
TGI (NCI/ADR-RES ovarian): 38.3 µM
GI50 (A549 NSCLC): 10.1 µM
TGI (A549 NSCLC): 27.1 µM
GI50 (M14 melanoma): 2.76 µM
TGI (M14 melanoma): 7.25 µM
GI50 (HT29 colon): 2.65 µM
TGI (HT29 colon): 6.37 µM
GI50 (DU-145 prostate): 1.8 µM
TGI (DU-145 prostate): 3.22 µM
GI50 (MDA-MB-435): 2.95 µM
TGI (MDA-MB-435): 8.76 µM
GI50 (NCI-H460 lung): 8.12 µM
TGI (NCI-H460 lung): 25.9 µM
GI50 (SF-295 CNS): 18 µM
TGI (SF-295 CNS): 41 µM
GI50 (SK-MEL-2 melanoma): 7.99 µM
TGI (SK-MEL-2 melanoma): 21.9 µM
GI50 (KM12 colon): 10.8 µM
TGI (KM12 colon): 23.1 µM
GI50 (NCI-H522 lung): 1.62 µM
TGI (NCI-H522 lung): 3.34 µM
GI50 (BT-549 breast): 4.84 µM
TGI (BT-549 breast): 9.55 µM
GI50 (ACHN renal): 1.81 µM
TGI (ACHN renal): 3.24 µM
GI50 (SF-539 CNS): 5.61 µM
TGI (SF-539 CNS): 14.9 µM
GI50 (COLO 205 colon): 1.75 µM
TGI (COLO 205 colon): 3.35 µM
GI50 (SK-MEL-5 melanoma): 4.86 µM
TGI (SK-MEL-5 melanoma): 14.6 µM
GI50 (MDA-MB-231 breast): 3.98 µM
TGI (MDA-MB-231 breast): 15.1 µM
GI50 (HOP-92 NSCLC): 1.99 µM
TGI (HOP-92 NSCLC): 4.4 µM
GI50 (UACC-257 melanoma): 2.94 µM
TGI (UACC-257 melanoma): 7.5 µM
GI50 (A498 renal): 18.6 µM
TGI (A498 renal): 33.3 µM
GI50 (EKVX NSCLC): 6.46 µM
TGI (EKVX NSCLC): 22.1 µM
GI50 (NCI-H226 lung): 8.37 µM
TGI (NCI-H226 lung): 34 µM
GI50 (MALME-3M melanoma): 2.07 µM
TGI (MALME-3M melanoma): 3.94 µM
GI50 (T-47D breast): 2.16 µM
TGI (T-47D breast): 4.68 µM
GI50 (OVCAR-5 ovarian): 14 µM
TGI (OVCAR-5 ovarian): 28.3 µM
GI50 (LOX IMVI melanoma): 2.65 µM
TGI (LOX IMVI melanoma): 6.7 µM
